{"source": "patent US11602514B2", "about": "“Medicament having anti-inflammatory bowel disease function, and preparation method therefor and application thereof” (SUZHOU PHARMAVAN CO., LTD, priority 2018, dated 2023)", "key": {"[1]": {"experiment": "acute toxicity, single oral dose", "assay_type": "in vivo", "details": "both sexes, SD, rat, in vivo, po; single intragastric administration; read-out: MTD (tolerance to acute toxicity of a single dosage)", "from_the_text": "(§1) Trial method: 30 SD rats, half male and half female, were used. The average weight was 160-200 g for female rats and 180-220 g for male rats when grouped. An individual weight should be within ±20% of the average weight. Before the test, animals needed to accommodate to the environment for at least 5 days, and healthy rats (female rats should be not pregnant) were selected as test animals. Matter detected during the accommodation period mainly was: whether the rats were consistent with quality indexes required in the order; detection of general conditions; and whether the weight was within the weight range required by the test. Unqualified abnormal animals were excluded from the test. A single dosage was orally administered to rats at a low, medium, or high dose. […] A control group was set with the oral administration of the same volume of solvent.\n(§2) The rats were observed about 0-2 h and 4-6 h after each administration. If a toxicity symptom occurs, the rats may be observed more times. (2) Gross anatomical observation: on the 14th day of the test, all surviving rats in each group were dissected and observed, and for administration sites and gross dissection, abnormal organs and tissues which were observed and found to be potentially related to test samples were photographed and recorded. (3) Disposal of dying animals: status of rats and observation time were recorded, and their weights were measured. (4) Disposal of dead animals: the time of death or when a rat was found dead were recorded. The rat was measured for weight before quickly dissected for gross observation and speculated for a cause of death."}, "[2]": {"system": "SD rats", "experiment": "acute toxicity, single oral dose", "assay_type": "in vivo", "details": "single intragastric administration, 14 days observation", "from_the_text": "as §1, §2"}, "[3]": {"system": "acute IBD model induced by 5% DSS", "experiment": "DSS-induced mouse in vivo model of IBD", "parameters": "species or system C57BL/6 mice", "details": "tail vein 5, 2.5, 1.25 mg/kg, 4 days", "method": "Female SPF-grade C57BL/6 mice each with an age of 6 to 8 weeks were subjected to adaptive feeding for 3-7 days, and then fed with 5% aqueous solution of DSS in a free water-drinking manner (day0). The original aqueous solution of DSS was replaced with a fresh aqueous solution of DSS every 2 days. After the mice freely drank the aqueous solution of DSS for 7 days (day7), they were fed with fresh purified water. After 4 days of modeling, medicament was administered on the 5th day of modeling. Animals were administered via tail veins with 5 mg/kg, 2.5 mg/kg, and 1.25 mg/kg of the medicament for treatment. The animals were administered with the medicament for 4 continuous days, and then observed for 1 day. The experiments were terminated 24 h after the last administration.\nDetection indexes: the weight of each group of animals was observed and recorded every day, and feces of each animal were collected to detect occult blood in the feces. If obvious blood in the feces cannot be determined, an occult blood detection kit was used for confirming the occult blood, and the result was recorded on an experimental record paper and photographed. When the experiments ended, animal serum was collected to detect the expression of IL-6 in the blood. At the same time, the fecal traits, occult blood, and weight change rate of each animal were scored, and the scores were added to give a DAI score for the animal. Colorectal tissue samples of the animals were collected for the subsequent pathological detection and detection of MPO in the tissue."}, "[4]": {"system": "COX2 protein expressed by mouse macrophages RAW264.7", "experiment": "COX2 protein expression in LPS-induced RAW264.7 macrophages (blot)", "assay_type": "cell-based", "details": "FIG. 8", "method": "(§3) Effects of myricanol derivatives on the expression of inflammatory factors such as IL-6, TNF-α, PEG2 secreted by a mouse macrophage cell strain RAW 264.7 induced by bacterial lipopolysaccharide (hereinafter referred to as LPS) stimulus: A pre-prepared cell suspension was inoculated in a 96-well plate at 15000 cells/well and 100 μl/well and cultured overnight in an incubator with 5% CO2 at 37° C. At 80% cell confluence, the original culture medium was discarded, and each well was added with 100 μl of prepared drug solution to be tested with a different concentration, cultured for 1 h, and then added with a LPS solution, where the final concentration of LPS in the culture system was 100 ng/mL. Each concentration was set with 3 parallel wells, and a cell control group (no drug and no solvent) and a blank medium control group (no cells, a well for zero adjustment) were set. They were cultured for another 24 h. Cell culture supernatants were aspirated, and an R&D ELISA detection kit (M6000B; MTA00B; VAL601) was used for detecting the expression of the inflammatory factors such as IL-6, TNF-α, and PEG2 in each group. Cell proteins were collected, and a […] method was used for detecting COX-2 protein expression in each group."}, "[5]": {"system": "IBD model induced by 2.5% TNBS", "experiment": "TNBS-induced rat in vivo model of IBD", "parameters": "species or system SD rats", "details": "6 days; for injuries of colorectal ulcers (anatomical and pathological HE): FIGS. 20 and 21", "method": "Test method: female SPF-grade SD rats each with a weight of 180-200 g were subjected to adaptive feeding for 5-7 days, and then started to be modeled. At the time of modeling, the rats were anesthetized, a pre-labeled cat catheter was inserted through the anus into the colon for 8 cm, 250 μL of 2.5% (wt/vol) TNBS solution was slowly injected into the cavity of the colon, the rat was inverted for 1 min, and then the catheter was slowly removed from the intestine. The rat was hold with its head down towards for 1 min and then put back to a cage. Rats in a blank group were administered with the same volume of normal saline. On the second day of modeling, i.e., D1, the medicament was administered through intragastric administration for 6 continuous days.\nDetection indexes: the weight of each group of animals was observed and recorded every day, and feces of each animal were collected at the beginning of experiments to detect occult blood in the feces. If obvious blood in the feces cannot be determined, an occult blood detection kit was used for confirming the occult blood, and the result was recorded on an experimental record paper and photographed. After the end of the experiments, the fecal traits, occult blood, and weight change rate of each animal were scored, and the scores were added to give a DAI score for each animal. Colorectal tissue samples of the animals were collected and a wet weight was weighted for the subsequent pathological detection."}, "[6]": {"system": "IL-6 secreted by mouse macrophages RAW264.7 induced by LPS", "experiment": "IL-6 secreted by LPS-induced RAW264.7 macrophages (ELISA)", "assay_type": "cell-based", "details": "LPS 100 ng/mL, 24 h; FIG. 5", "method": "as §3"}, "[7]": {"system": "mouse macrophages RAW264.7", "experiment": "effect on proliferation activity of mouse macrophages RAW264.7", "assay_type": "cell-based", "details": "80 μM; n=3; FIG. 4"}}, "note": "“Also recorded” adds a separate entry of the source.", "data": [{"smiles": "COc1c2cc(c(O)c1OC)CCCCC(OS(=O)(=O)O)CCc1ccc(O)c-2c1", "note": "(stereo not shown) [compound H, 11-sulfonyloxy myricanol]", "values": [{"measurement": "MTD at 14 days", "setting": "[1]", "value": "> 1500", "unit": "mg/kg"}, {"measurement": "Test Endpoint (toxic side effects)", "setting": "[2]; 100 mg/kg", "value": "No obvious toxic"}, {"measurement": "Test Endpoint (toxic side effects)", "setting": "[2]; 300 mg/kg", "value": "No obvious toxic"}, {"measurement": "Test Endpoint (toxic side effects)", "setting": "[2]; 1000 mg/kg", "value": "No obvious toxic"}, {"measurement": "Test Endpoint (toxic side effects)", "setting": "[2]; 1500 mg/kg", "value": "No obvious toxic"}, {"measurement": "weight change rate (weight loss trend)", "setting": "[3]; FIG. 10 (5 mg/kg vs 5% DSS p<0.01)", "value": "slowing the weight loss trend"}, {"measurement": "level of IL-6 protein in serum", "setting": "[3]; FIG. 11", "value": "significant anti-inflammatory effect"}, {"measurement": "DAI score", "setting": "[3]; FIG. 12", "value": "significant effect of reducing the DAI scores"}, {"measurement": "colorectal pathology (injuries of intestinal mucosa)", "setting": "[3]; FIG. 13", "value": "significant effect of repairing injuries of intestinal mucosa"}, {"measurement": "colorectal MPO (oxidative injuries)", "setting": "[3]; FIG. 14", "value": "a certain effect of improving oxidative injuries"}, {"measurement": "COX2 protein expression inhibition compared with myricanol", "setting": "[4]", "value": "better inhabitation effects than myricanol"}, {"measurement": "inhibition of protein expression of IBD-related COX2", "setting": "[4]", "value": "can inhibit"}, {"measurement": "colorectal wet weight (edema)", "setting": "[5]; 12.5 mg/kg intragastric, no statistical difference, FIG. 15", "value": "trend of reducing the edema"}, {"measurement": "area of colorectal ulcers", "setting": "[5]; oral 12.5 mg/kg, FIG. 16", "value": "significantly reducing the area of colorectal ulcers"}, {"measurement": "area of colorectal ulcers, efficacy compared with 5-ASA", "setting": "[5]; oral 12.5 mg/kg, FIG. 16", "value": "slightly better efficacy than 5-aminosalicylic acid (5-ASA)"}, {"measurement": "colorectal inflammation, efficacy compared with 5-ASA", "setting": "[5]; oral 12.5 mg/kg, FIG. 17", "value": "substantially same efficacy as 5-aminosalicylic acid (5-ASA)"}, {"measurement": "inflammation score of colorectal pathological HE", "setting": "[5]; oral 12.5 mg/kg, FIG. 17, 12.5 mg/kg", "value": "significantly reducing the level of colorectal inflammation; also recorded: significantly improving the score of colorectal inflammation"}, {"measurement": "colorectal total injuries, efficacy compared with 5-ASA", "setting": "[5]; oral 12.5 mg/kg, FIG. 18", "value": "substantially same efficacy as 5-aminosalicylic acid (5-ASA)"}, {"measurement": "score of total injuries of colorectal pathological HE", "setting": "[5]; oral 12.5 mg/kg, FIG. 18, 12.5 mg/kg", "value": "significantly reducing the level of colorectal total injures; also recorded: significantly reducing the degree of overall colorectal injuries"}, {"measurement": "injury score of colorectal ulcers, efficacy compared with 5-ASA", "setting": "[5]; oral 12.5 mg/kg, FIG. 19", "value": "slightly better efficacy than 5-aminosalicylic acid (5-ASA)"}, {"measurement": "score of ulcerative injuries of colorectal pathological HE", "setting": "[5]; oral 12.5 mg/kg, FIG. 19, 12.5 mg/kg", "value": "significantly reducing the injury score of colorectal ulcers; also recorded: significantly reducing the severity of injuries"}, {"measurement": "injuries of colorectal ulcers (anatomical and pathological HE)", "setting": "[5]; oral 12.5 mg/kg", "value": "effect of reducing injuries of colorectal ulcers"}, {"measurement": "injuries of colorectal ulcers (anatomical and pathological HE)", "setting": "[5]; oral 25 mg/kg", "value": "effect of reducing injuries of colorectal ulcers"}, {"measurement": "inhibition of LPS-induced IL-6 secretion of RAW264.7 cells", "setting": "[6]", "value": "very strong effects of inhibiting"}, {"measurement": "effect on proliferation activity of mouse macrophages RAW264.7", "setting": "[7]", "value": "no significant effects"}]}]}
